Laboratory results from article PMC12951562, “SH2scan: Mapping SH2 Domain-Ligand Binding Selectivity for Inhibitors and Degraders” (Journal of Medicinal Chemistry, 2026).
Read-outs that look alike come from different tables or passages of the source. Non-standard residues stand in square brackets, D forms with d. Residues, ends and D or L forms follow the SMILES beside them. *: point of attachment. pY = N[C@@H](Cc1ccc(OP(=O)(O)O)cc1)C(=O)O; Caffeoyl = O=C(/C=C/c1ccc(O)c(O)c1)*

Columns and labels:
Assay in all cases: biochemical
Format in all cases: binding
SOCS4 = molecular target: T1, SOCS4 (Homo sapiens, UniProt Q8WXH5); details: for remaining activity at 10 µM: read-out: percent of DMSO vehicle control
T1 construct: made in house; host or cells: HEK293 (transient transfection), unpurified extract
T1 sequence (Q8WXH5 1-440): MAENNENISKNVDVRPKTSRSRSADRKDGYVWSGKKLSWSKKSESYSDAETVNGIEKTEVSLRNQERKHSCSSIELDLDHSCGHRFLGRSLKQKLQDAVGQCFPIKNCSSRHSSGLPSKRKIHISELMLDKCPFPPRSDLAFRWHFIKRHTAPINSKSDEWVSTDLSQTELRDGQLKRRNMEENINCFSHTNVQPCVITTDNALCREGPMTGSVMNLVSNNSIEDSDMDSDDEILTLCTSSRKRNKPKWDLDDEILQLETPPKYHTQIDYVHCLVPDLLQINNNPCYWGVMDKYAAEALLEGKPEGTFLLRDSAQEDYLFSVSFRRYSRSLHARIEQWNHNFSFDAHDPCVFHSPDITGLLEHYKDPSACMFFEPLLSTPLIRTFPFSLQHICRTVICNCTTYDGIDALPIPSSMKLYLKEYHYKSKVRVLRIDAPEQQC

PIK3R1(SH2dom.C-term.) = molecular target: T2, PIK3R1(SH2dom.C-term.) (Homo sapiens, UniProt P27986); details: for remaining activity at 10 µM: read-out: percent of DMSO vehicle control
T2 construct: SH2dom.C-term. denotes SH2 domain closest to C-terminus of protein; made in house; host or cells: HEK293 (transient transfection, unpurified extract)

CBLB = molecular target: T3, CBLB (Homo sapiens, UniProt Q13191); details: for percent of DMSO vehicle control: primary screen, 10 μM
T3 construct: the DNA-tagged SH2 domain concentrations used in this study were <0.1 nM; made in house; host or cells: HEK293 (transient transfection; unpurified extract)

SHC1 = molecular target: T4, SHC1 (Homo sapiens, UniProt P29353); details: for remaining activity at 10 µM: read-out: percent of DMSO vehicle control
T4 construct: made in house; host or cells: HEK293 (transient transfection), unpurified extract
T4 sequence (P29353 1-583): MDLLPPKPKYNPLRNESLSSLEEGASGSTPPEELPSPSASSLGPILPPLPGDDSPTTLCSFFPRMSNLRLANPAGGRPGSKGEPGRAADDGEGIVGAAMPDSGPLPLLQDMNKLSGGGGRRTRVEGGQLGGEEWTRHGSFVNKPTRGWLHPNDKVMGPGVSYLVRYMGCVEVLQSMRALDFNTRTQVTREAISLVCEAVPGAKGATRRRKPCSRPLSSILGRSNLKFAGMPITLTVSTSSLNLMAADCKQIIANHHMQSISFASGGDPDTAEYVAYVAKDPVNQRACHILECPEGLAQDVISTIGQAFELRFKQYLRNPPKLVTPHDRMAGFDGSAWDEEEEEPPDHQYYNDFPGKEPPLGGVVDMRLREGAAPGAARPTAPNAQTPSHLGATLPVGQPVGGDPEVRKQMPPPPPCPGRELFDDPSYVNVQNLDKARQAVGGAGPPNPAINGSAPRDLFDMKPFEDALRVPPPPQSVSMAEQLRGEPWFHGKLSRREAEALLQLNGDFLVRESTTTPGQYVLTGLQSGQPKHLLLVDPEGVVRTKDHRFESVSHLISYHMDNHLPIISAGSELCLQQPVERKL

LNK (SH2B3) = molecular target: T5, LNK (SH2B3) (Homo sapiens, UniProt Q9UQQ2); details: for remaining activity at 10 µM: read-out: percent of DMSO vehicle control
T5 construct: the DNA-tagged SH2 domain concentrations used in this study were <0.1 nM; made in house; host or cells: HEK293 (transient transfection, unpurified extract)

SH3BP2 = molecular target: T6, SH3BP2 (Homo sapiens, UniProt P78314); details: for remaining activity at 10 µM: read-out: percent of DMSO vehicle control
T6 construct: made in house; host or cells: HEK293 (transient transfection), unpurified extract
T6 sequence (P78314 1-561): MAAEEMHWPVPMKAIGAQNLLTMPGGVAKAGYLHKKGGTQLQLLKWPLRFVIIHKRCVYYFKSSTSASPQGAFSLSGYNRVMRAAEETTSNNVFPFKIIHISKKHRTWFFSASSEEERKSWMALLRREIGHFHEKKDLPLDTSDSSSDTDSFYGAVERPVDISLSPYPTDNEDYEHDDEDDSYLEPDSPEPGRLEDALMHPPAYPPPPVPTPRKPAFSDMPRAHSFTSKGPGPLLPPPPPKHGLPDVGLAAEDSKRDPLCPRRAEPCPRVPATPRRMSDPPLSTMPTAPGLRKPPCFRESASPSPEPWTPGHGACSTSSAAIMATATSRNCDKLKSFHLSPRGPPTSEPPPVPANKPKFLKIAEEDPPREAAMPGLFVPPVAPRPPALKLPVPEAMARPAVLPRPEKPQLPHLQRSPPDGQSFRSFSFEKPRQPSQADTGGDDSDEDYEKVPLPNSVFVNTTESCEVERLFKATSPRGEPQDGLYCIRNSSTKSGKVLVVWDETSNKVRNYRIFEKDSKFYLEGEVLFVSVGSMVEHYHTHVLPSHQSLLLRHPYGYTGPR

CSK = molecular target: T7, CSK (Homo sapiens, UniProt P41240); details: for percent of DMSO vehicle control: primary screen, 10 μM
T7 construct: the DNA-tagged SH2 domain concentrations used in this study were <0.1 nM; made in house; host or cells: HEK293 (transient transfection; unpurified extract)
T7 sequence (P41240 82-171 limits assumed): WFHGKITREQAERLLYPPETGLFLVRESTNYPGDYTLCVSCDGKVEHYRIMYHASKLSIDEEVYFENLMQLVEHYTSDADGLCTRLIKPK

PIK3R2(SH2dom.N-term.) = molecular target: T8, PIK3R2(SH2dom.N-term.) (Homo sapiens, UniProt O00459); details: for remaining activity at 10 µM: read-out: percent of DMSO vehicle control
T8 construct: SH2dom.N-term. denotes SH2 domain closest to N-terminus of protein; made in house; host or cells: HEK293 (transient transfection, unpurified extract)

SHC2 = molecular target: T9, SHC2 (Homo sapiens, UniProt P98077); details: for remaining activity at 10 µM: read-out: percent of DMSO vehicle control
T9 construct: made in house; host or cells: HEK293 (transient transfection), unpurified extract
T9 sequence (P98077 1-582): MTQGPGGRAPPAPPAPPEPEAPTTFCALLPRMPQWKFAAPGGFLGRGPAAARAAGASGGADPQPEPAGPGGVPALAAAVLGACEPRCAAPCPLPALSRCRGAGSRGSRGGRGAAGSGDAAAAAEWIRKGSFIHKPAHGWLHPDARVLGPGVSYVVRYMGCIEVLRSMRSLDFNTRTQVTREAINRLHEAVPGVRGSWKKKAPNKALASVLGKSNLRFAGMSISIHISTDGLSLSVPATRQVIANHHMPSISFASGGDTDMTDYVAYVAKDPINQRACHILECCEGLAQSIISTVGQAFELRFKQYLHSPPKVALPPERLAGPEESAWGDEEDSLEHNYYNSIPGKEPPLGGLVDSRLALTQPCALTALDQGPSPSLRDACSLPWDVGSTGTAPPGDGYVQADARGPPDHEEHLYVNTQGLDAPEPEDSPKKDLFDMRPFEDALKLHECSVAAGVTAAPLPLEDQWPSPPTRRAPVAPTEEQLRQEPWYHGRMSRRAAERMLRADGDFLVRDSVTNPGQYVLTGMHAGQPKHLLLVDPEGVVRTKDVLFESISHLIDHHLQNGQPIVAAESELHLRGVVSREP

T3 sequence (Q13191 241-343 limits assumed): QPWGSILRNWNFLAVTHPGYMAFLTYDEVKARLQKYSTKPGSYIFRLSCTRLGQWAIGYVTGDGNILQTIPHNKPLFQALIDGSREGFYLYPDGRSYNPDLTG
T8 sequence (O00459 330-425 limits assumed): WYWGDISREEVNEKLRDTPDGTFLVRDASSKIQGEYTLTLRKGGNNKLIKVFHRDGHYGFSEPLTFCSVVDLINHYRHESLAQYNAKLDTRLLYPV
T5 sequence (Q9UQQ2 364-462 limits assumed): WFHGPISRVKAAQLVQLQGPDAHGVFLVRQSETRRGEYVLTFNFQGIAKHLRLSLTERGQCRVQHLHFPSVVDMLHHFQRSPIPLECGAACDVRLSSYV
T2 sequence (P27986 624-718 limits assumed): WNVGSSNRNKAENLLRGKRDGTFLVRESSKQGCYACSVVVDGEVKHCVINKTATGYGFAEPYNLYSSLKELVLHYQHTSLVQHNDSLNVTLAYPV

Row | Compound | percent of DMSO vehicle control (CBLB) | percent of DMSO vehicle control (CSK) | remaining activity at 10 µM (SOCS4) | remaining activity at 10 µM (PIK3R1(SH2dom.C-term.)) | remaining activity at 10 µM (SHC1) | remaining activity at 10 µM (LNK (SH2B3)) | remaining activity at 10 µM (SH3BP2) | remaining activity at 10 µM (PIK3R2(SH2dom.N-term.)) | remaining activity at 10 µM (SHC2) | further results
1 | C/C(=C\C(=O)N[C@H](C(=O)N1CCC[C@H]1C(=O)N(c1ccccc1)c1ccc(I)cc1)C(C)(C)C)c1ccc(OP(=O)(O)O)cc1 [STAT6-IN-1] | 36.0±0.8% | 26.3±0.8% | – | – | – | – | – | – | – | Kd (SOCS4; dose-response, read-out: KD): 0.013 µM; remaining activity at 10 µM (SOCS4; primary screen, 10 μM): 0%; Kd (PIK3R1(SH2dom.C-term.); dose-response, read-out: KD): 3.4 ± 1.1 µM; remaining activity at 10 µM (PIK3R1(SH2dom.C-term.); primary screen, 10 μM): 12.3 ± 0.1%; remaining activity at 10 µM (SHC1; primary screen, 10 μM): 48.2 ± 4.5%; Kd (LNK (SH2B3); dose-response, read-out: KD): 2.3 ± 0.14 µM; remaining activity at 10 µM (LNK (SH2B3); primary screen, 10 μM): 6.9 ± 3.8%; remaining activity at 10 µM (SH3BP2; primary screen, 10 μM): 56.5 ± 0.3%; Kd (CSK; dose-response, read-out: KD): 3.05 ± 0.49 µM; remaining activity at 10 µM (PIK3R2(SH2dom.N-term.); primary screen, 10 μM): 48.2 ± 5.7%; remaining activity at 10 µM (SHC2; primary screen, 10 μM): 47.3 ± 3.3%
2 | CC[C@H](C)[C@H](NC(=O)[C@H](CCC(=O)O)NC(=O)[C@H](CCC(=O)O)NC(=O)[C@H](Cc1ccc(OP(=O)(O)O)cc1)NC(=O)/C=C/c1ccc(O)c(O)c1)C(=O)N[C@@H](CCC(=O)O)C(=O)O [Caffeic acid-pYEEIE] (Caffeoyl-[pY]EEIE-OH) | 32.7±22.6% | 103.0±4.8% | 2.5 ± 0.1% | 0.2 ± 0.1% | 0% | 0.4 ± 0.1% | 0.9 ± 0.3% | 0% | 0.3 ± 0.1% | Kd (SOCS4): 1.5 ± 0.81 µM; Kd (PIK3R1(SH2dom.C-term.)): 0.14 ± 0.1 µM; Kd (CBLB): 5.7 ± 1.4 µM; Kd (SHC1): 0.32 ± 0.28 µM; Kd (LNK (SH2B3)): 0.5 ± 0.41 µM; Kd (SH3BP2): 1.02 ± 0.6 µM; Kd (PIK3R2(SH2dom.N-term.)): 0.18 ± 0.052 µM; Kd (SHC2): 0.58 ± 0.33 µM
3 | CC[C@H](C)[C@H](NC(=O)[C@H](CO)NC(=O)[C@H](CC(C)C)NC(=O)[C@H](CCCNC(=N)N)NC(=O)[C@H](CO)NC(=O)[C@H](CS)NC(C)=O)C(=O)N[C@@H](Cc1ccc(OP(=O)(O)O)cc1)C(=O)N[C@@H](CC(=O)O)C(=O)N[C@@H](CC(N)=O)C(=O)N[C@H](C(=O)N1CCC[C@H]1C(=O)NCC(N)=O)C(C)C [Ac-CSRLSIpYDNVPG-NH2] (Ac-CSRLSI[pY]DNVPG-NH2) | – | – | – | – | – | – | – | – | – | Kd (SH3BP2): 0.209 ± 0.0101 µM
4 | CC(=O)N1CC[C@H]2CC[C@@H](C(=O)N[C@@H](CCC(N)=O)C(=O)NC(c3ccccc3)c3ccccc3)N2C(=O)[C@@H](NC(=O)c2cc3cc(C(F)(F)P(=O)(O)O)ccc3[nH]2)C1 [SI-109] | 128.3% | 121.2% | 123% | 128% | 112% | 81.4 ± 6.7% | 131% | 130% | 131% | –
5 | O=C(CCl)Nc1cccc(CNC(=O)[C@H](Cc2ccc(OP(=O)(O)O)cc2)NC(=O)Cc2ccc(F)cc2)c1 [MN551] | 86.8±3.2% | 105.0% | – | – | – | – | – | – | – | Kd (SOCS4; dose-response, read-out: KD): 0.064 µM; remaining activity at 10 µM (SOCS4; primary screen, 10 μM): 9.6 ± 3.9%; remaining activity at 10 µM (PIK3R1(SH2dom.C-term.); primary screen, 10 μM): 52.4%; remaining activity at 10 µM (SHC1; primary screen, 10 μM): 112%; Kd (LNK (SH2B3); dose-response, read-out: KD): 3.9 ± 0.71 µM; remaining activity at 10 µM (LNK (SH2B3); primary screen, 10 μM): 17.7 ± 5.5%; remaining activity at 10 µM (SH3BP2; primary screen, 10 μM): 109%; remaining activity at 10 µM (PIK3R2(SH2dom.N-term.); primary screen, 10 μM): 101%; remaining activity at 10 µM (SHC2; primary screen, 10 μM): 82.9 ± 1.7%
6 | NC(=O)CC[C@H](NC(=O)[C@@H]1CC[C@@H]2CCN(C(=O)CCCCCC#Cc3cccc4c3CN(C3CCC(=O)NC3=O)C4=O)C[C@H](NC(=O)c3cc4cc(C(F)(F)P(=O)(O)O)ccc4[nH]3)C(=O)N21)C(=O)NC(c1ccccc1)c1ccccc1 (some centres unmarked) [SD-36] | 60.9±5.8% | 97.3±14.8% | 30 ± 17.2% | 94.6 ± 6.5% | 62 ± 8.8% | 86.6% | 91.5 ± 19.4% | 132% | 94.9 ± 2.3% | Kd (SOCS4; dose-response): 5.9 µM
7 | CC(=O)N[C@@H](Cc1ccc(CP(=O)(O)O)cc1)C(=O)NC1(C(=O)N[C@@H](CC(N)=O)C(=O)NCCCc2c(O)ccc3ccccc23)CCCCC1 [CGP78850] | 122.1±4.2% | 119.6±4.5% | 101 ± 1.6% | 0% | 49.8 ± 6.2% | 79.1 ± 5.6% | 77.8 ± 0.5% | 141 ± 24.2% | 100 ± 8.5% | Kd (PIK3R1(SH2dom.C-term.)): 0.15 µM
